Measurements reported in US6900219B2, “ABCA-1 elevating compounds” (CV Therapeutics, Inc., priority 2002, dated 2005).

What follows are compounds tested on ABCA-1 gene (assay: compounds tested and found to elevate cellular expression of the ABCA-1 gene (Examples 1-6; test not named)).
Assay type: cell-based
Method: Activity testing is conducted as described in those patents and patent applications referenced above, and in the Examples below, and by methods apparent to one skilled in the art.

| Compound | cellular expression of the ABCA-1 gene |
| --- | --- |
| CC(C)c1ccc(NC(=O)N(Cc2ccco2)C(C)c2nc3ccccc3c(=O)n2-c2ccc(Cl)cc2)cc1 (stereo not shown) [N-{[3-(4-chlorophenyl)-4-oxo(3-hydroquinazolin-2-yl)]ethyl}-N-(2-furylmethyl){[4-(methylethyl)phenyl]amino}carboxamide] | elevate cellular expression of the ABCA-1 gene |
| CCCN(C(=O)Nc1cccc(OC)c1)C(C)c1nc2cc(Cl)ccc2c(=O)n1-c1ccc(C)cc1 (stereo not shown) [N-{[7-chloro-3-(4-methylphenyl)-4-oxo(3-hydroquinazolin-2-yl)]ethyl}[(3-methoxyphenyl)amino]-N-propylcarboxamide] | elevate cellular expression of the ABCA-1 gene |
| Cc1c(C(=O)NC(=O)Nc2ccccc2Cl)cnn1-c1ccccc1 [N-{[(2-chlorophenyl)amino]carbonyl}(5-methyl-1-phenylpyrazol-4-yl)carboxamide] | elevate cellular expression of the ABCA-1 gene |
| CCN(CCCN(CC)c1nc2cc(C(=O)Nc3ccc(OC)cc3)ccc2o1)C(=O)c1cccc(F)c1C [[2-(ethyl{3-[N-ethyl(3-fluoro-2-methylphenyl)carbonylamino]propyl}amino)benzoxazol-5-yl]-N-(4-methoxyphenyl)carboxamide] | elevate cellular expression of the ABCA-1 gene |
| O=C(Nc1ncc(-c2ccccc2)s1)c1ccc(C(F)(F)F)cc1F [[2-fluoro-4-(trifluoromethyl)phenyl]-N-(5-phenyl(1,3-thiazol-2-yl))carboxamide] | elevate cellular expression of the ABCA-1 gene |
| Cc1onc(-c2ccccc2Cl)c1C(=O)Nc1ncc(-c2ccccc2)s1 [[3-(2-chlorophenyl)-5-methylisoxazol-4-yl]-N-(5-phenyl(1,3-thiazol-2-yl))carboxamide] | elevate cellular expression of the ABCA-1 gene |
| O=C(Nc1ncc(-c2ccccc2)s1)c1ccc(C(F)(F)F)c(F)c1 [[3-fluoro-4-(trifluoromethyl)phenyl]-N-(5-phenyl(1,3-thiazol-2-yl))carboxamide] | elevate cellular expression of the ABCA-1 gene |
| CCc1c(C(=O)N2CCN(C(=O)c3cccc(Br)c3)C(C)C2)cnn1-c1nc(-c2ccc(Cl)cc2)cs1 (stereo not shown) [[4-(3-bromo-benzoyl)-3-methyl-piperazin-1-yl]-{1-[4-(4-chloro-phenyl)-thiazol-2-yl]-5-ethyl-1H-pyrazol-4-yl}-methanone] | elevate cellular expression of the ABCA-1 gene |
| CCc1c(C(=O)N2CCN(C(=O)c3ccc(-c4ccccc4)cc3)C(C)C2)cnn1-c1nc(-c2ccc(OC)cc2)cs1 (stereo not shown) [[4-(biphenyl-4-carbonyl)-3-methyl-piperazin-1-yl]-{5-ethyl-1-[4-(4-methoxy-phenyl)-thiazol-2-yl]-1H-pyrazol-4-yl}-methanone] | elevate cellular expression of the ABCA-1 gene |
| CN(C)c1ccc(C(=O)NC2=NCCS2)cc1 [[4-(dimethylamino)phenyl]-N-(1,3-thiazolin-2-yl)carboxamide] | elevate cellular expression of the ABCA-1 gene |
| CN(C)c1ccc(C(=O)NC2=NC(=O)CS2)cc1 [[4-(dimethylamino)phenyl]-N-(4-oxo(1,3-thiazolin-2-yl))carboxamide] | elevate cellular expression of the ABCA-1 gene |
| CC(C)c1ccc(C(=O)NC2=NCCS2)cc1 [[4-(methylethyl)phenyl]-N-(1,3-thiazolin-2-yl)carboxamide] | elevate cellular expression of the ABCA-1 gene |
| CC(C)(C)c1ccc(C(=O)NC2=NCCS2)cc1 [[4-(tert-butyl)phenyl]-N-(1,3-thiazolin-2-yl)carboxamide] | elevate cellular expression of the ABCA-1 gene |
| CC(C)(C)c1ccc(C(=O)Nc2nc(-c3ccc4ccccc4c3)cs2)cc1 [[4-(tert-butyl)phenyl]-N-(4-(2-naphthyl)(1,3-thiazol-2-yl))carboxamide] | elevate cellular expression of the ABCA-1 gene |
| CC(C)(C)c1ccc(C(=O)NC2=NC(=O)CS2)cc1 [[4-(tert-butyl)phenyl]-N-(4-oxo(1,3-thiazolin-2-yl))carboxamide] | elevate cellular expression of the ABCA-1 gene |
| CC(C)(C)c1ccc(C(=O)Nc2ncc(-c3ccccc3)s2)cc1 [[4-(tert-butyl)phenyl]-N-(5-phenyl(1,3-thiazol-2-yl))carboxamide] | elevate cellular expression of the ABCA-1 gene |
| CC(C)(C)c1ccc(C(=O)Nc2nc(-c3ccc(Cl)cc3)cs2)cc1 [[4-(tert-butyl)phenyl]-N-[4-(4-chlorophenyl)(1,3-thiazol-2-yl)]carboxamide] | elevate cellular expression of the ABCA-1 gene |
| CC(C)(C)c1ccc(C(=O)N(CCc2ccccn2)Cc2ccccc2[N+](=O)[O-])cc1 [[4-(tert-butyl)phenyl]-N-[(2-nitrophenyl)methyl]-N-(2-(2-pyridyl)ethyl)carboxamide] | elevate cellular expression of the ABCA-1 gene |
| CC(c1nc2ccccc2c(=O)n1-c1ccc2ccccc2c1)N(CCN(C)C)C(=O)Nc1ccc(F)cc1F (stereo not shown) [[(2,4-difluorophenyl)amino]-N-[2-(dimethylamino)ethyl]-N-[(3-(2-naphthyl)-4-oxo(3-hydroquinazolin-2-yl))ethyl]carboxamide] | elevate cellular expression of the ABCA-1 gene |
| CCC(c1nc2ccccc2c(=O)n1-c1ccc(Cl)cc1)N(CCOC)C(=O)Nc1ccc(F)cc1F (stereo not shown) [[(2,4-difluorophenyl)amino]-N-{[3-(4-chlorophenyl)-4-oxo(3-hydroquinazolin-2-yl)]propyl}-N-(2-methoxyethyl)carboxamide] | elevate cellular expression of the ABCA-1 gene |
| Cc1cccc(C)c1NC(=O)N(Cc1ccccc1)C(C)c1nc2ccccc2c(=O)n1-c1ccc2ccccc2c1 (stereo not shown) [[(2,6-dimethylphenyl)amino]-N-[(3-(2-naphthyl)-4-oxo(3-hydroquinazolin-2-yl))ethyl]-N-benzylcarboxamide] | elevate cellular expression of the ABCA-1 gene |
| Cc1ccccc1NC(=O)N(CC(C)C)C(C)c1nc2ccccc2c(=O)n1-c1ccc2ccccc2c1 (stereo not shown) [[(2-methylphenyl)amino]-N-(2-methylpropyl)-N-[(3-(2-naphthyl)-4-oxo(3-hydroquinazolin-2-yl))ethyl]carboxamide] | elevate cellular expression of the ABCA-1 gene |
| CC(C)CN(C(=O)Nc1cccc(Br)c1)C(C)c1nc2ccccc2c(=O)n1-c1ccc2ccccc2c1 (stereo not shown) [[(3-bromophenyl)amino]-N-(2-methylpropyl)-N-[(3-(2-naphthyl)-4-oxo(3-hydroquinazolin-2-yl))ethyl]carboxamide] | elevate cellular expression of the ABCA-1 gene |
| CC(C)CN(C(=O)Nc1cccc(Cl)c1)C(C)c1nc2ccccc2c(=O)n1-c1ccc2ccccc2c1 (stereo not shown) [[(3-chlorophenyl)amino]-N-(2-methylpropyl)-N-[(3-(2-naphthyl)-4-oxo(3-hydroquinazolin-2-yl))ethyl]carboxamide] | elevate cellular expression of the ABCA-1 gene |
| O=C(Nc1cccc(Cl)c1)Nc1ccc2c(c1)CCC2 [[(3-chlorophenyl)amino]-N-indan-5-ylcarboxamide] | elevate cellular expression of the ABCA-1 gene |
